The subject of data set [1] is platelet-rich green fluorescent fibrin clot. Kind of data set: In vitro thrombolytic capacity in PPFC on platelet-rich fluorescent fibrin clots. In kind it is cell-based. Conditions: flow over clot. The method, then: Glass microscope slides were incubated with collagen suspension in a circular region for 30 min (similar to slide preparation for PPFC-based binding studies) and then gently washed with 1×PBS. PRP with AlexaFluor 488-conjugated fibrinogen (6% v/v of 1.5 mg/mL, green fluorescent) was briefly mixed with α-thrombin and 0.5 M CaCl2), to final concentrations of 5 nM and […] respectively, to initiate clot formation and the mixture was pipetted (100 μl volume) onto the collagen-coated surface region. The clot was allowed to incubate for 1 h and then gently washed with 1×PBS to remove loosely bound components. The slide thus formed with platelet-rich green fluorescent fibrin clot on its surface, was sealed into the parallel plate flow chamber (PPFC) system, to be imaged under the inverted fluorescence microscope. The objective was focused on an area at the edge of the clot such that the initial field of view enabled observation of the green fluorescence of the fibrin clot throughout the whole area of view, and the clot lysis could then be observed as the loss of this fluorescence. […] In this experimental set-up, sPLA2-triggered degradation of clot-bound PMIN vesicles and resultant SK release was expected to convert the plasminogen to plasmin and thereby lyse the fibrin of the clot.

The subject of data set [2] is FeCl3-induced carotid artery thrombus. The experiment in a line: Targeted thrombolysis in vivo (delay of vessel occlusion, FeCl3 carotid thrombosis). Set-up: species or system mouse. Conditions: ~400 IU SK where loaded, injected ~5 min after thrombus induction. The source says: For targeted thrombolytic capacity assessment, Rhodamine 6G solution was first injected into the right jugular vein of the mouse to render direct fluorescent labeling of circulating platelets and the FeCl3-induced thrombus was created in the carotid as before, such that the formation of the thrombus and extent of vessel occlusion can be observed directly by monitoring the fluorescent platelets in the artery with intra-vital microscopy. For this, the carotid artery was thrombosed as before and […] of Rhodamine 6G solution was injected into the right jugular vein that results in direct fluorescent labeling of circulating platelets. This allows for imaging platelet-rich thrombus formation (and lysis) in real time. […] The effect of these various treatments on delaying the thrombus growth over time was imaged by intravital microscopy, with images recorded for 10 s every minute for the first 10 min and then 10 s every other minute until the end of the experiment. […] The end points of the experiment were: 1) when blood flow had ceased for >30 s due to vessel occlusion, or 2) if occlusion was not observed in 30 min after SK (free or vesicle-encapsulated) administration. […]

We go through 2 substances from patent publication US12161698B2, “Synthetic platelets” (CASE WESTERN RESERVE UNIVERSITY, priority 2011, dated 2024).

No end group written: not given here. Bounds are passed on as bounds.

Consider TRYLRIHPQSWVHQI-NH2 [VBP], for which the “activation of platelets by aggregometry” value with platelets was “inability of both VBP and CBP to activate platelets”.
Take streptokinase [free SK]: the “time to clot lysis (loss of green fluorescence)” value in data set [1] was at most 15 min. Besides, the “delay in vessel occlusion” value in data set [2] was “keeps the artery significantly open due to persistent thrombolysis”.
